In assay [1] the test system is foxtail, giant. Briefly: Test A postemergence. Type of assay: in vivo, Setaria faberii. To be noted: Setaria faberi, post-emergence, 240 h, 0 to 100 scale (0 no effect, 100 complete control), approx. 10 d, read-out: Plant response rating, Foxtail, Giant; for pest or weed control at 125 g/ha: 125 g ai/ha; for pest or weed control at 500 g/ha: 500 g ai/ha. The gist of the method: (§1)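 For preemergence, seeds were sown in a loam soil-sand blend and given a directed soil spray of test chemical in a non-phytotoxic solvent mixture with surfactant. For postemergence, plants in pots of the same blend were sprayed with the same formulation at the one- to two-leaf stage, 2 to 10 cm tall.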

Assay [2] has as its system pigweed. Briefly: Test A postemergence. Type of assay: in vivo, Amaranthus retroflexus. Particulars: Amaranthus retroflexus, post-emergence, 240 h, 0 to 100 scale (0 no effect, 100 complete control), approx. 10 d, read-out: Plant response rating, Pigweed; for pest or weed control at 125 g/ha: 125 g ai/ha; for pest or weed control at 500 g/ha: 500 g ai/ha. In a few lines:
as §1

A further assay deals with ducksalad. Briefly: Test B flooded paddy test. Particulars: Heteranthera limosa, 360 h, 125 g ai/ha, applied to paddy water at 2-leaf stage, visual rating after 13 to 15 d, scale 0 (no effect) to 100 (complete control), read-out: Plant response rating, Ducksalad, Flood. Type of assay: in vivo, Heteranthera limosa. The gist of the method: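 Pots were flooded to 3 cm above the soil at treatment, and compounds were applied directly into the paddy water. That depth was held throughout. After 13 to 15 d in a greenhouse, plants were rated visually against untreated controls.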

The test system of assay [3] is pigweed. The assay is described as follows: Test A preemergence. Format: in vivo, Amaranthus retroflexus. Particulars: Amaranthus retroflexus, pre-emergence, 240 h, 0 to 100 scale (0 no effect, 100 complete control), read-out: Plant response rating, Pigweed; for pest or weed control at 125 g/ha: 125 g ai/ha; for pest or weed control at 500 g/ha: 500 g ai/ha, approx. 10 d. In a few lines:
as §1

In assay [4] the test system is foxtail, giant. The assay is described as follows: Test A preemergence. Type of assay: in vivo, Setaria faberii. To be noted: Setaria faberi, pre-emergence, 240 h, 0 to 100 scale (0 no effect, 100 complete control), read-out: Plant response rating, Foxtail, Giant; for pest or weed control at 125 g/ha: 125 g ai/ha; for pest or weed control at 500 g/ha: 500 g ai/ha, approx. 10 d. The gist of the method: as §1

With `Cn1nc(-c2ccc(F)cc2)nc1C(O)c1ccnc(C(F)(F)F)c1` (stereo not drawn) [Compound 14, α-[3-(4-fluorophenyl)-1-methyl-1H-1,2,4-triazol-5-yl]-2-(trifluoromethyl)-4-pyridinemethanol], the pest or weed control at 125 g/ha in the assay on foxtail, giant [1] worked out at 20%; with pigweed [2] it was 60%; in the assay on ducksalad, 0%; in the assay with pigweed [3] it was 90%; with foxtail, giant [4], 30%. In addition, the pest or weed control at 500 g/ha is 30% in the assay with foxtail, giant [1]; 90% with pigweed [2]; 100% in the assay on pigweed [3]; 90% with foxtail, giant [4].

For `CCn1nc(-c2ccc(F)cc2)nc1C(=O)c1ccnc(C(F)(F)F)c1` [Compound 19, [1-ethyl-3-(4-fluorophenyl)-1H-1,2,4-triazol-5-yl][2-(trifluoromethyl)-4-pyridinyl]methanone], the pest or weed control at 125 g/ha with foxtail, giant [1] was found to be 0%; in the assay on pigweed [2] it was 0%; in the assay with ducksalad it was 0%; in the assay with pigweed [3] it was 0%; in the assay with foxtail, giant [4], 0%. For the same compound, the pest or weed control at 500 g/ha in the assay with foxtail, giant [1] worked out at 0%; in the assay with pigweed [2], 30%; with pigweed [3] it was 0%; with foxtail, giant [4] it was 50%.

In the case of `CS(=O)(=O)c1nc(-c2ccc(F)cc2)nn1Cc1ccnc(C(F)(F)F)c1` [Compound 29, 4-[[3-(4-fluorophenyl)-5-(methylsulfonyl)-1H-1,2,4-triazole-1-yl]methyl]-2-(trifluoromethyl)pyridine], the pest or weed control at 125 g/ha in the assay with foxtail, giant [1] is 0%; in the assay on pigweed [2] it was 0%; in the assay on ducksalad, 0%; in the assay on pigweed [3] it was 0%; with foxtail, giant [4] it was 0%. For the same compound, the pest or weed control at 500 g/ha came to 0% with foxtail, giant [1]; 0% with pigweed [2]; 0% in the assay on pigweed [3]; 0% in the assay with foxtail, giant [4].

With `Cn1nc(-c2ccc(F)cc2)nc1Oc1cccc(C(F)(F)F)c1` [Compound 5, 3-(4-fluorophenyl)-1-methyl-5-[3-(trifluoromethyl)phenoxy]-1H-1,2,4-triazole], the pest or weed control at 125 g/ha came to 20% with foxtail, giant [1]; 90% with pigweed [2]; 40% with pigweed [3]; 60% in the assay with foxtail, giant [4]. Further, the pest or weed control at 500 g/ha in the assay on foxtail, giant [1] is 70%; in the assay on pigweed [2] it was 100%; in the assay on pigweed [3], 50%; in the assay on foxtail, giant [4], 90%.

Regarding `CCCn1nc(-c2ccc(F)cc2)nc1Cc1ccnc(C(F)(F)F)c1` [Compound 17, 4-[[3-(4-fluorophenyl)-1-propyl-1H-1,2,4-triazol-5-yl]methyl]-2-(trifluoromethyl)pyridine], the pest or weed control at 125 g/ha came out at 90% with foxtail, giant [1]; 100% in the assay with pigweed [2]; 70% in the assay on ducksalad; 100% in the assay on pigweed [3]; 100% in the assay on foxtail, giant [4]. The pest or weed control at 500 g/ha came to 90% with foxtail, giant [1]; 100% in the assay on pigweed [2]; 100% in the assay with pigweed [3]; 100% in the assay on foxtail, giant [4].

With `CCn1nc(-c2ccc(F)cc2)nc1C(O)c1ccnc(C(F)(F)F)c1` (stereo not drawn) [Compound 15, α-[1-Ethyl-3-(4-fluorophenyl)-1H-1,2,4-triazol-5-yl]-2-(trifluoromethyl)-4-pyridinemethanol], the pest or weed control at 125 g/ha in the assay with foxtail, giant [1] came to 0%; in the assay on pigweed [2] it was 10%; with ducksalad it was 0%; in the assay on pigweed [3] it was 0%; with foxtail, giant [4], 0%. For the same compound, the pest or weed control at 500 g/ha in the assay on foxtail, giant [1] was 10%; in the assay on pigweed [2], 70%; in the assay with pigweed [3], 0%; in the assay on foxtail, giant [4], 20%.

The record behind these values is patent publication US10681909B2, “Herbicidal triazoles” (FMC Corporation, priority 2014, dated 2020).
